Measurements: US10047051B2, “Substituted pyridines and method of use” (AbbVie S.á{acute over (.)}r.l., priority 2015, dated 2018)

Experiments:
[1] = target: T1, CFTR G551D mutant (Homo sapiens, UniProt P13569, G551D); experiment: YFP-halide influx assay for the CFTR-G551D mutation (HEK293 cells); assay type: cell-based; conditions: forskolin 10.67 μM
T1 construct: expressed in transfected cells; host or cells: HEK293 cells, reverse transfection with plasmids
In short: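 Channel opening read as I⁻-driven quenching of a YFP H148Q/I152L/F47L reporter over 7 s post-injection, expressed as 1−F/F0 and fitted against concentration for EC50. Cells were HEK293 co-transfected at seeding with G551D CFTR plus reporter, then grown 24 h at 37 °C, 5% CO2.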

[2] = target: T2, CFTR ΔF508 mutant (Homo sapiens, UniProt P13569, DEL508-508); experiment: YFP-halide influx assay for the CFTR-ΔF508 mutation (CFBE41o- cells); assay type: cell-based; conditions: forskolin 10.67 μM; for EC50: from (1−F/F0) vs concentration plot
T2 construct: expressed in transfected cells; host or cells: CFBE41o- cells, adenoviral transduction
In short: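 EC50 derived from plotting 1−F/F0 (fluorescence 36 s after iodide injection over pre-injection value) against compound concentration. Cells: CFBE41o- transduced with ΔF508-CFTR and YFP quench reporter, corrected 24 h at 27° C or by a CFTR modulator at 37° C.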

T1 sequence (P13569 whole entry G551D): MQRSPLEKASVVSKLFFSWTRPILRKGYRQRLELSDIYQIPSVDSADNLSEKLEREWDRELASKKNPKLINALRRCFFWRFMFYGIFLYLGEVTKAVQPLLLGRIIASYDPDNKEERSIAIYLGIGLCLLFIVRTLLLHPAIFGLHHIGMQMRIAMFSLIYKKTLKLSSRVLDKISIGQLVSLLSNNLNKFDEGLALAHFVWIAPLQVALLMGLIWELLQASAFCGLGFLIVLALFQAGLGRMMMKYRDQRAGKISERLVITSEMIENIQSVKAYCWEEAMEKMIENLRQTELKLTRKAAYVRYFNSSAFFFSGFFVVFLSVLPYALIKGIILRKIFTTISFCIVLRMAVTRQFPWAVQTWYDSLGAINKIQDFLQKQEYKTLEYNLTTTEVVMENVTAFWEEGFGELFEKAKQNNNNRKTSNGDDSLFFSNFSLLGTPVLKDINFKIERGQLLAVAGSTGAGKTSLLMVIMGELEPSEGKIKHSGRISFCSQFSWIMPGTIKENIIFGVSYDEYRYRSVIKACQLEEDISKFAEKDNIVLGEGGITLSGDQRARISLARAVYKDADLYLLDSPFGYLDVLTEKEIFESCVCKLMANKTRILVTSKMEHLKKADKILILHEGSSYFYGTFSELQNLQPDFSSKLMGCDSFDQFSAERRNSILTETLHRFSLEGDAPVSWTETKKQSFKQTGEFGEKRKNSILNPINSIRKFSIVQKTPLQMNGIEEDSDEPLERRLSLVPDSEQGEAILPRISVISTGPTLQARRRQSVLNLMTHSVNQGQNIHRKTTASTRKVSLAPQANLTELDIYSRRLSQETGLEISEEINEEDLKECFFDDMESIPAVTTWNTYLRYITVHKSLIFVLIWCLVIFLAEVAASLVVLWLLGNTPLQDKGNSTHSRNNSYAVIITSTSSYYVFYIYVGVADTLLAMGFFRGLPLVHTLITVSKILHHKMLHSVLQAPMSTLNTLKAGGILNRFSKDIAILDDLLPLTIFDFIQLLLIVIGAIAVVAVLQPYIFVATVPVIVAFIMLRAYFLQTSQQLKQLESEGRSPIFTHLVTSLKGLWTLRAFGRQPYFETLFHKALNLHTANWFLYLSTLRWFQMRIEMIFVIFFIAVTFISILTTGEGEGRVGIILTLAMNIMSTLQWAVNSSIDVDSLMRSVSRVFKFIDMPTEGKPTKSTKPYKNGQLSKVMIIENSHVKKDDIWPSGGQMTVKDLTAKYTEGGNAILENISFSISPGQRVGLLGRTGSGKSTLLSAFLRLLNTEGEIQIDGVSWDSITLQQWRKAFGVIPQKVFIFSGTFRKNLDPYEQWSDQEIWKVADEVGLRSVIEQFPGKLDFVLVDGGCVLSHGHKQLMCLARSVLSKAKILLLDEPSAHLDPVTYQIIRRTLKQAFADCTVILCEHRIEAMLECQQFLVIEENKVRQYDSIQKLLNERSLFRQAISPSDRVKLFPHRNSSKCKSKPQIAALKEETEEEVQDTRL
T2 sequence (P13569 with tags, fused parts or gaps DEL508-508): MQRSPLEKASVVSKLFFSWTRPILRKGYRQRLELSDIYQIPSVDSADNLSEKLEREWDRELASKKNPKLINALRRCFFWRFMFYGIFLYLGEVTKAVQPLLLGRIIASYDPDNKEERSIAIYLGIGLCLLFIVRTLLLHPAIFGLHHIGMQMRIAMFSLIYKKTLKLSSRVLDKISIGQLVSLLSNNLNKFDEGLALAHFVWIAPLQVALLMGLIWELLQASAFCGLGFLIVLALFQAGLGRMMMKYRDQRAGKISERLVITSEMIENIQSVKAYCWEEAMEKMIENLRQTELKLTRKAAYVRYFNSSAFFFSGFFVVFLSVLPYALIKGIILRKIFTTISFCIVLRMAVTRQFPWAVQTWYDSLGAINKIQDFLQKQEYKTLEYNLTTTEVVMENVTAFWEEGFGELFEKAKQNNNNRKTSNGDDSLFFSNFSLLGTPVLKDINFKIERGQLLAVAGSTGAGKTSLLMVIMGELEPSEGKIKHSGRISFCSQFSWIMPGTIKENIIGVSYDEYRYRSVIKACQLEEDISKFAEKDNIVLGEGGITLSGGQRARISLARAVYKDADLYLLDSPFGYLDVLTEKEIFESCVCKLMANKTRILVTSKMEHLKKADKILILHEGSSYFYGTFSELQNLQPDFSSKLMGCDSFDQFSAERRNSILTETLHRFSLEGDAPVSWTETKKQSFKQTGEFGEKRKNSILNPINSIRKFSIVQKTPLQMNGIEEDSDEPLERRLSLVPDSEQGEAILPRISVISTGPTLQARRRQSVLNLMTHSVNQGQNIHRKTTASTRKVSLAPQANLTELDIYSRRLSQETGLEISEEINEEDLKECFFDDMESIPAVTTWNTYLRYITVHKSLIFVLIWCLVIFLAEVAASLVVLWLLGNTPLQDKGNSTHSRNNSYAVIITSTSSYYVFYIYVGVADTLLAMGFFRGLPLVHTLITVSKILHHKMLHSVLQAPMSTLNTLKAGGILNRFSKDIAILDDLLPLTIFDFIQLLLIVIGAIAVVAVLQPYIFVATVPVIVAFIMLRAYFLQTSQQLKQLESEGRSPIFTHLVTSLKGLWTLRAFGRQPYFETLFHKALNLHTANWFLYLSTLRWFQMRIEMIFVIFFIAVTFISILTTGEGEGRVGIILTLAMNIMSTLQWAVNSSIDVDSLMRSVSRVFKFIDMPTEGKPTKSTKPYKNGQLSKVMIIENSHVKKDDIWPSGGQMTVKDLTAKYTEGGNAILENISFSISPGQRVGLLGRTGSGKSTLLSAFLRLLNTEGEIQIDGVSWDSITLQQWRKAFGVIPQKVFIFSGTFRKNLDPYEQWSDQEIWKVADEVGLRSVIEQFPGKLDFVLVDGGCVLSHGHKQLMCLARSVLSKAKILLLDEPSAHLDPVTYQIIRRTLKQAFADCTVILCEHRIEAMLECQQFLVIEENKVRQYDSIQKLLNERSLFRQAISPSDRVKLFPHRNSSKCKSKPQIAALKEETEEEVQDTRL

Row | SMILES | % Activation [1] | EC50 [1] | % Activation [2] | EC50 [2]
1 | Nc1cc(S(=O)(=O)c2ccc(C(F)(F)F)cc2)cnc1C(=O)NC[C@@H]1CCOC1 [Compound 102, 3-amino-N-[(3S)-tetrahydrofuran-3-ylmethyl]-5-{[4-(trifluoromethyl)phenyl]sulfonyl}pyridine-2-carboxamide] | 73.6% | 1.36 µM | 119.0% | 0.0282 µM
2 | CC(C)NC(=O)CNC(=O)c1ncc(S(=O)(=O)c2ccc(C(F)(F)F)cc2)cc1N [Compound 104, 3-amino-N-[2-oxo-2-(propan-2-ylamino)ethyl]-5-{[4-(trifluoromethyl)phenyl]sulfonyl}pyridine-2-carboxamide] | 26.1% | > 10 µM | 100.8% | 0.0189 µM
3 | Nc1cc(S(=O)(=O)c2ccc(C(F)(F)F)cc2F)cnc1C(=O)NC[C@H]1CCOC1 [Compound 106, 3-amino-5-{[2-fluoro-4-(trifluoromethyl)phenyl]sulfonyl}-N-[(3R)-tetrahydrofuran-3-ylmethyl]pyridine-2-carboxamide] | 42.4% | > 3.33 µM | 99.0% | 0.0195 µM
4 | COCCN(C1CC1)S(=O)(=O)c1cnc(C(=O)NCC(O)C(F)(F)F)c(N)c1 (stereo not drawn) [Compound 108, 3-amino-5-[cyclopropyl(2-methoxyethyl)sulfamoyl]-N-(3,3,3-trifluoro-2-hydroxypropyl)pyridine-2-carboxamide] | 56.8% | 1.7 µM | 110.0% | 0.0182 µM
5 | Nc1cc(S(=O)(=O)c2ccc(C(F)(F)F)cc2F)cnc1C(=O)NC[C@@H]1CCOC1 [Compound 114, 3-amino-5-{[2-fluoro-4-(trifluoromethyl)phenyl]sulfonyl}-N-[(3S)-tetrahydrofuran-3-ylmethyl]pyridine-2-carboxamide] | 37.9% | > 10 µM | 109.3% | 0.0191 µM
6 | Nc1cc(S(=O)(=O)c2ccc(OC(F)(F)F)cc2F)cnc1C(=O)NC[C@@H]1CCOC1 [Compound 116, 3-amino-5-{[2-fluoro-4-(trifluoromethoxy)phenyl]sulfonyl}-N-[(3S)-tetrahydrofuran-3-ylmethyl]pyridine-2-carboxamide] | 50.0% | 1.4 µM | 101.1% | 0.0277 µM
7 | Nc1cc(S(=O)(=O)c2ccc(OC(F)(F)F)cc2)cnc1C(=O)N1CC2(CCOC2)C1 [Compound 125, (3-amino-5-{[4-(trifluoromethoxy)phenyl]sulfonyl}pyridin-2-yl)(6-oxa-2-azaspiro[3.4]oct-2-yl)methanone] | 84.1% | 2.21 µM | 114.0% | 0.0656 µM
8 | CC1CN(C(=O)c2ncc(S(=O)(=O)c3ccc(OC(F)(F)F)cc3)cc2N)C1 [Compound 126, (3-amino-5-{[4-(trifluoromethoxy)phenyl]sulfonyl}pyridin-2-yl)(3-methylazetidin-1-yl)methanone] | 62.2% | 1.47 µM | 92.9% | 0.0649 µM
9 | Nc1cc(S(=O)(=O)c2ccc(OC(F)(F)F)cc2)cnc1C(=O)NC1CCOC1 (stereo not drawn) [Compound 127, 3-amino-N-(tetrahydrofuran-3-yl)-5-{[4-(trifluoromethoxy)phenyl]sulfonyl}pyridine-2-carboxamide] | 61.2% | 1.88 µM | 107.0% | 0.0829 µM
10 | Nc1cc(S(=O)(=O)c2ccc(OC(F)(F)F)cc2)cnc1C(=O)N[C@@H]1CCOC1 [Compound 128, 3-amino-N-[(3R)-tetrahydrofuran-3-yl]-5-{[4-(trifluoromethoxy)phenyl]sulfonyl}pyridine-2-carboxamide] | 41.7% | > 10 µM | 95.0% | 0.0852 µM

Continued, values first:

Row | % Activation [1] | EC50 [1] | % Activation [2] | EC50 [2] | SMILES
11 | 50.4% | 0.128 µM | 103.5% | 0.002 µM | Nc1cc(S(=O)(=O)c2ccc(C(F)(F)F)cc2)cnc1C(=O)N1CC(O)(C(F)(F)F)C1 [Compound 105, (3-amino-5-{[4-(trifluoromethyl)phenyl]sulfonyl}pyridin-2-yl)[3-hydroxy-3-(trifluoromethyl)azetidin-1-yl]methanone]
12 | 81.7% | 0.164 µM | 103.0% | 0.0015 µM | Nc1cc(S(=O)(=O)c2ccc(C(F)(F)F)cc2F)cnc1C(=O)NC[C@@H](O)C(F)(F)F [Compound 107, 3-amino-5-{[2-fluoro-4-(trifluoromethyl)phenyl]sulfonyl}-N-[(2R)-3,3,3-trifluoro-2-hydroxypropyl]pyridine-2-carboxamide]
13 | 62.6% | 0.296 µM | 104.0% | 0.0036 µM | Nc1cc(S(=O)(=O)N2CCOc3ccccc32)cnc1C(=O)NCC(O)C(F)(F)F (stereo not drawn) [Compound 109, 3-amino-5-(2,3-dihydro-4H-1,4-benzoxazin-4-ylsulfonyl)-N-(3,3,3-trifluoro-2-hydroxypropyl)pyridine-2-carboxamide]
14 | 83.6% | 1.14 µM | 116.0% | 0.0335 µM | CC1(C)CN(C(=O)c2ncc(S(=O)(=O)c3ccc(C(F)(F)F)cc3)cc2N)C1 [Compound 110, (3-amino-5-{[4-(trifluoromethyl)phenyl]sulfonyl}pyridin-2-yl)(3,3-dimethylazetidin-1-yl)methanone]
15 | 99.2% | 0.851 µM | 103.2% | 0.0226 µM | CC1(C)CN(C(=O)c2ncc(S(=O)(=O)c3ccc(C(F)(F)F)cc3F)cc2N)C1 [Compound 111, (3-amino-5-{[2-fluoro-4-(trifluoromethyl)phenyl]sulfonyl}pyridin-2-yl)(3,3-dimethylazetidin-1-yl)methanone]
16 | 74.1% | 0.157 µM | 100.6% | 0.0026 µM | Nc1cc(S(=O)(=O)c2ccc(C(F)(F)F)cc2F)cnc1C(=O)N1CC(O)(C(F)(F)F)C1 [Compound 112, (3-amino-5-{[2-fluoro-4-(trifluoromethyl)phenyl]sulfonyl}pyridin-2-yl)[3-hydroxy-3-(trifluoromethyl)azetidin-1-yl]methanone]
17 | 41.1% | 0.297 µM | 101.9% | 0.0104 µM | CC(C)NC(=O)CNC(=O)c1ncc(S(=O)(=O)c2ccc(C(F)(F)F)cc2F)cc1N [Compound 113, 3-amino-5-{[2-fluoro-4-(trifluoromethyl)phenyl]sulfonyl}-N-[2-oxo-2-(propan-2-ylamino)ethyl]pyridine-2-carboxamide]
18 | 40.6% | 0.9 µM | 102.3% | 0.0349 µM | Nc1cc(S(=O)(=O)c2ccc(OC(F)(F)F)cc2F)cnc1C(=O)NC[C@H]1CCOC1 [Compound 115, 3-amino-5-{[2-fluoro-4-(trifluoromethoxy)phenyl]sulfonyl}-N-[(3R)-tetrahydrofuran-3-ylmethyl]pyridine-2-carboxamide]
19 | 79.8% | 0.218 µM | 107.9% | 0.0017 µM | Nc1cc(S(=O)(=O)c2ccc(OC(F)(F)F)cc2F)cnc1C(=O)NC[C@@H](O)C(F)(F)F [Compound 117, 3-amino-5-{[2-fluoro-4-(trifluoromethoxy)phenyl]sulfonyl}-N-[(2R)-3,3,3-trifluoro-2-hydroxypropyl]pyridine-2-carboxamide]
20 | 54.0% | 1.11 µM | 96.5% | 0.0768 µM | CO[C@H]1C[C@H](NC(=O)c2ncc(S(=O)(=O)c3ccc(OC(F)(F)F)cc3)cc2N)C1 [Compound 120, 3-amino-N-(trans-3-methoxycyclobutyl)-5-{[4-(trifluoromethoxy)phenyl]sulfonyl}pyridine-2-carboxamide]
21 | 88.6% | 1.33 µM | 102% | 0.113 µM | Nc1cc(S(=O)(=O)c2ccc(OC(F)(F)F)cc2)cnc1C(=O)N1CC2(CCCOC2)C1 [Compound 121, (3-amino-5-{[4-(trifluoromethoxy)phenyl]sulfonyl}pyridin-2-yl)(6-oxa-2-azaspiro[3.5]non-2-yl)methanone]
22 | 50.9% | 0.425 µM | 83.2% | 0.0353 µM | Nc1cc(S(=O)(=O)c2ccc(OC(F)(F)F)cc2)cnc1C(=O)NC1CC(F)(F)C1 [Compound 122, 3-amino-N-(3,3-difluorocyclobutyl)-5-{[4-(trifluoromethoxy)phenyl]sulfonyl}pyridine-2-carboxamide]
23 | 60.5% | 0.88 µM | 98.5% | 0.0862 µM | COCCCNC(=O)c1ncc(S(=O)(=O)c2ccc(OC(F)(F)F)cc2)cc1N [Compound 123, 3-amino-N-(3-methoxypropyl)-5-{[4-(trifluoromethoxy)phenyl]sulfonyl}pyridine-2-carboxamide]
24 | 57.0% | 0.824 µM | 104.0% | 0.1 µM | CC1(CCNC(=O)c2ncc(S(=O)(=O)c3ccc(OC(F)(F)F)cc3)cc2N)CC1 [Compound 124, 3-amino-N-[2-(1-methylcyclopropyl)ethyl]-5-{[4-(trifluoromethoxy)phenyl]sulfonyl}pyridine-2-carboxamide]
